Experimental findings from ChEMBL document CHEMBL1287737, “Identification of potent and reversible cruzipain inhibitors for the treatment of Chagas disease” (Bioorg Med Chem Lett, 2010) are described below.

The source made the active and inactive calls.

As usually defined, the IC50 is the concentration that gives 50% inhibition. A low value points to greater potency. In general, half-life refers to the time needed for the level to fall by half in the phase considered. What is called bioavailability is dose-corrected exposure relative to a reference, in per cent.

Some targets named below: Cathepsin B (Homo sapiens, UniProt P07858); Procathepsin L (Homo sapiens, UniProt P07711); Cruzipain (Trypanosoma cruzi, UniProt P25779).
Data set [1] is described as follows: Half life in dog. The settings on record: in vivo. In kind it is ADME, organism-based, Canis lupus familiaris.
Another data set concerns the target T1, Cathepsin K (Homo sapiens, UniProt P43235).
T1 sequence (P43235 whole entry): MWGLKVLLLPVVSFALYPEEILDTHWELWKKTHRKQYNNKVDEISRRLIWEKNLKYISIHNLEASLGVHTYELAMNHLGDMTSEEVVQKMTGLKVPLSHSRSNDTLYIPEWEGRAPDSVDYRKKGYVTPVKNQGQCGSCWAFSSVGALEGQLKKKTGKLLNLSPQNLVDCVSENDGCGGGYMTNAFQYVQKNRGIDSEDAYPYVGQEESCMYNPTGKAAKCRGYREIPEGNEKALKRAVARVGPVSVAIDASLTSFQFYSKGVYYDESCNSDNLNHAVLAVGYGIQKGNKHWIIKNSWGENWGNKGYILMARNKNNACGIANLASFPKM
The data set can be described thus: Inhibition of human Cat K expressed in Ramos cells. In kind it is cell-based.

Data set [2] is described as follows: Half life in rat. In kind it is ADME, organism-based. The settings on record: in vivo.
Data set [3] is described as follows: Oral bioavailability in rat. In kind it is ADME, organism-based. The conditions noted are these: in vivo.
For another data set, the target named is Cathepsin S (Homo sapiens, UniProt P25774). The data set can be described thus: Inhibition of human Cat S expressed in Ramos cells. In kind it is cell-based.
The nature of data set [4]: Oral bioavailability in dog. In kind it is ADME, organism-based, Canis lupus familiaris. The conditions noted are these: in vivo.
The target of another data set is T2, Cathepsin L2 (Homo sapiens, UniProt O60911).
T2 sequence (O60911 whole entry): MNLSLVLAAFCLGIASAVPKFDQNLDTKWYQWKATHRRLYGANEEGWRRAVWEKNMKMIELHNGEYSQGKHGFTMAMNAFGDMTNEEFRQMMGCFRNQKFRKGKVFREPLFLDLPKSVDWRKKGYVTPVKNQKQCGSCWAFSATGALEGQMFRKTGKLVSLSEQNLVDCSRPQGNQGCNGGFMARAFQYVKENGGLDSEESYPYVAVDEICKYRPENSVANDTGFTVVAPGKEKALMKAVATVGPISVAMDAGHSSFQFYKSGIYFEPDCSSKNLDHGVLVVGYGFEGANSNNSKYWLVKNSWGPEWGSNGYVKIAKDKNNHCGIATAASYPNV
Put plainly: Inhibition of human Cat V.

The nature of data set [5]: Half life in mouse. The settings on record: in vivo. In kind it is ADME, organism-based.
For another data set, the system named is Trypanosoma cruzi. Put plainly: Antimicrobial activity against Trypanosoma cruzi infected in mouse assessed as reduction in parasitemia. In kind it is functional, organism-based.
For a further data set, the species on record is Mus musculus. Put plainly: Toxicity in Trypanosoma cruzi infected mouse. In kind it is organism-based. The settings on record: in vivo.

Chain of Cathepsin S (P25774 whole entry): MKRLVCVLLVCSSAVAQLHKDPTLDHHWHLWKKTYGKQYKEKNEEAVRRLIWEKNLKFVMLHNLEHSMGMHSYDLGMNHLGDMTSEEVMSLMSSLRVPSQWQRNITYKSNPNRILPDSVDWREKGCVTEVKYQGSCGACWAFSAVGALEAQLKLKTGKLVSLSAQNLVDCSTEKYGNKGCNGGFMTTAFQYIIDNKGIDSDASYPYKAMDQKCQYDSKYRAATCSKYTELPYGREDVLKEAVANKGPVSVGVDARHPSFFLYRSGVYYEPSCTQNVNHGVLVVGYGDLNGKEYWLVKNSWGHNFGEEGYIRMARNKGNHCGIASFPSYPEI
Chain of Cruzipain (P25779 whole entry): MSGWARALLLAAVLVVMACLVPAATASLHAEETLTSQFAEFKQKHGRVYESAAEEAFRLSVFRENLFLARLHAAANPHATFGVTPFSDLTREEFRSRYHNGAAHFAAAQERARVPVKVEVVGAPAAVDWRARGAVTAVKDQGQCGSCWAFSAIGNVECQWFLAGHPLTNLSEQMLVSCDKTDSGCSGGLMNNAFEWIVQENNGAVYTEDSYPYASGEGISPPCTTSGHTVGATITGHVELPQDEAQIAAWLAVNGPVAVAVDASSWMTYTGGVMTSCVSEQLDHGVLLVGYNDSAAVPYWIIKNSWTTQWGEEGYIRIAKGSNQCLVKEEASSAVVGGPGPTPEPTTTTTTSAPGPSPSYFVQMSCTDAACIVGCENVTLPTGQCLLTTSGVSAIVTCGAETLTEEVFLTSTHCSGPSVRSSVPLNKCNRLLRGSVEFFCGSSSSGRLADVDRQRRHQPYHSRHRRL
Chain of Procathepsin L (P07711 whole entry): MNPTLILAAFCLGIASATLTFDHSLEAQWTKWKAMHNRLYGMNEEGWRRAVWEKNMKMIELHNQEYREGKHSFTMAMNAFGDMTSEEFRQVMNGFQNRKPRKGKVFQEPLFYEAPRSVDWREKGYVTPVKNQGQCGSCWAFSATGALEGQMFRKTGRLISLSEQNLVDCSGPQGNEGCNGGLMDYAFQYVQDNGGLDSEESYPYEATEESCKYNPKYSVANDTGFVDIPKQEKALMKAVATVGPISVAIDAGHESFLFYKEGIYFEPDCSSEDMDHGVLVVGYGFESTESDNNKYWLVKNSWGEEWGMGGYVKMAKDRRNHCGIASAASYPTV
Description for Cathepsin B: Inhibition of human Cat B in HepG2 cells
Description for Cruzipain: Inhibition of Trypanosoma cruzi Cruzipain
Description for Procathepsin L: Inhibition of human Cat L

`CC(C)[C@H](N[C@@H](c1ccc(-c2ccc([C@@H](O)C(F)F)cc2)cc1)C(F)(F)F)C(=O)N[C@H](C#N)Cc1ccc(C#N)cc1F`: the IC50 at Cathepsin B is 0.087 µM; against Cathepsin K it was 0.002 µM; on Procathepsin L, 1.06 µM; at Cathepsin S it was 0.322 µM; against Cathepsin L2, 0.069 µM. Also, the half-life in data set [1] is 4.6 h; in data set [2], 5.2 h. The bioavailability came to 20% in data set [3] and 30% in data set [4].

In the case of `CC(C)(F)C[C@H](N[C@@H](c1ccc(-c2ccc([C@@H](O)C(F)F)cc2)cc1)C(F)(F)F)C(=O)N[C@H](C#N)Cc1ccccc1`, the IC50 against Cathepsin B was found to be 0.048 µM; against Procathepsin L it was 1.09 µM.

For `CC(C)[C@H](N[C@@H](c1ccc(-c2ccc(S(C)(=O)=O)cc2)cc1)C(F)(F)F)C(=O)N[C@H](C#N)Cc1ccccc1`, the IC50 was 0.433 µM against Cathepsin B and 0.631 µM on Procathepsin L.

Take `CC(C)C[C@H](N[C@@H](c1ccc(-c2ccc(S(C)(=O)=O)cc2)cc1)C(F)(F)F)C(=O)N[C@H](C#N)Cc1ccccc1`: the IC50 against Cathepsin B was found to be 0.163 µM; against Cruzipain, 0.0002 µM; against Procathepsin L, 0.117 µM.

Consider `CC(C)(F)C[C@H](N[C@@H](c1ccc(-c2ccc(C3(C(N)=O)CC3)cc2)cc1)C(F)(F)F)C(=O)N[C@H](C#N)Cc1ccccc1`, for which the figures for the IC50 on Cathepsin B and on Procathepsin L were 0.027 µM and 0.426 µM, respectively.

Turning to `CS(=O)(=O)c1ccc(-c2ccc([C@H](N[C@@H](CC3CC3)C(=O)N[C@H](C#N)Cc3ccccc3)C(F)(F)F)cc2)cc1`, the half-inhibitory concentration (IC50) turned out to be 0.231 µM against Cathepsin B and 5.25 µM against Procathepsin L.

On to `CC(C)(F)C[C@H](N[C@@H](c1ccc(-c2ccc(S(C)(=O)=O)cc2)cc1)C(F)(F)F)C(=O)N[C@H](C#N)Cc1ccncc1`, for which the IC50 against Cathepsin B turned out to be 0.079 µM; against Procathepsin L, 0.219 µM.

`CS(=O)(=O)c1ccc(-c2ccc([C@H](N[C@H](C(=O)N[C@H](C#N)Cc3ccccc3)C3CC3)C(F)(F)F)cc2)cc1`: the IC50 against Cathepsin B is 0.068 µM; at Cruzipain, 0.007 µM; against Procathepsin L, 0.751 µM.

With `CC(C)[C@H](N[C@@H](c1ccc(-c2ccc(S(C)(=O)=O)cc2)cc1)C(F)(F)F)C(=O)N[C@H](C#N)Cc1ccc(C#N)cc1F`, the IC50 came to 0.143 µM on Cathepsin B; 0.0009 µM on Cathepsin K; 0.121 µM at Procathepsin L; 0.169 µM against Cathepsin S; 0.028 µM against Cathepsin L2.

On to `CS(=O)(=O)c1ccc(-c2ccc([C@H](N[C@@H](Cc3ccccc3)C(=O)N[C@H](C#N)Cc3ccccc3)C(F)(F)F)cc2)cc1`, for which the IC50 at Cathepsin B worked out at 0.577 µM; on Cruzipain it was 0.007 µM; at Procathepsin L, 0.458 µM.

As for `CC(C)(F)C[C@H](N[C@@H](c1ccc(-c2ccc(S(C)(=O)=O)cc2)cc1)C(F)(F)F)C(=O)N[C@H](C#N)Cc1ccccc1`, the IC50 at Cathepsin B amounted to 0.122 µM; against Procathepsin L it was 0.966 µM. For the same molecule, the half-life in [5] was < 0.5 h.

`CC(C)(F)C[C@H](N[C@@H](c1ccc(-c2ccc(S(C)(=O)=O)cc2)cc1)C(F)(F)F)C(=O)N[C@H](C#N)CCc1ccccc1`: the IC50 is 0.397 µM against Cathepsin B, 0.51 µM on Cruzipain and > 10 µM on Procathepsin L.

Consider `CC(C)(F)C[C@H](N[C@@H](c1ccc(-c2ccc(C3(C(=O)N4CCOCC4)CC3)cc2)cc1)C(F)(F)F)C(=O)N[C@H](C#N)Cc1ccccc1`, for which the IC50 on Cathepsin B turned out to be 0.064 µM; on Procathepsin L, 1.08 µM.

As to `CC(C)(F)C[C@H](N[C@@H](c1ccc(-c2ccc(S(C)(=O)=O)cc2)cc1)C(F)(F)F)C(=O)N[C@H](C#N)C1(c2ccccc2)CC1`, the IC50 against Cathepsin B, on Cruzipain and against Procathepsin L was > 10 µM in each case.

For the molecule `CC(C)(C)[C@H](N[C@@H](c1ccc(-c2ccc(S(C)(=O)=O)cc2)cc1)C(F)(F)F)C(=O)N[C@H](C#N)Cc1ccccc1`, the IC50 against Cathepsin B is > 10 µM; on Cruzipain, 0.38 µM; at Procathepsin L, > 10 µM.

Regarding `CS(=O)(=O)c1ccc(-c2ccc([C@H](N[C@@H](CC(Cl)Cl)C(=O)N[C@H](C#N)Cc3ccccc3)C(F)(F)F)cc2)cc1`, the results for the IC50 against Cathepsin B and against Procathepsin L were 0.383 µM and 0.042 µM, respectively.

With `CC(C)(F)C[C@H](N[C@@H](c1ccc(-c2ccc(S(C)(=O)=O)cc2)cc1)C(F)(F)F)C(=O)N[C@@H](C#N)Cc1ccc(C#N)cc1F`, the IC50 against Cathepsin B is 0.26 µM; against Procathepsin L it was 0.711 µM.

Regarding `CC(C)(F)C[C@H](N[C@@H](c1ccc(-c2cn[nH]c2)cc1)C(F)(F)F)C(=O)N[C@H](C#N)Cc1ccccc1`, the IC50 stood at 0.059 µM on Cathepsin B, 0.033 µM against Cruzipain and 0.379 µM against Procathepsin L.

Regarding `CC(C)(F)C[C@H](N[C@@H](c1ccc(-c2ccc(S(C)(=O)=O)cc2)cc1)C(F)(F)F)C(=O)N[C@H](C#N)Cc1ccc(C#N)cc1F`, the IC50 against Cathepsin B worked out at 0.009 µM; against Procathepsin L, 0.049 µM.

With `CC(C)[C@H](N[C@@H](c1ccc(-c2ccc(C3(C(N)=O)CC3)cc2)cc1)C(F)(F)F)C(=O)N[C@H](C#N)Cc1ccc(C#N)cc1F`, the IC50 at Cathepsin B worked out at 0.041 µM; against Cathepsin K, 0.003 µM; at Procathepsin L, 0.098 µM; against Cathepsin S, 0.408 µM; at Cathepsin L2 it was 0.079 µM.

In turn, `CC(C)(F)C[C@H](N[C@@H](c1ccc(-c2ccc(-c3ccncc3)cc2)cc1)C(F)(F)F)C(=O)N[C@H](C#N)Cc1ccccc1` returned an IC50 at Procathepsin L of 0.436 µM.

Consider `CC(C)(F)C[C@H](N[C@@H](c1ccc(-c2ccc(S(C)(=O)=O)cc2)cc1)C(F)(F)F)C(=O)N[C@H](C#N)CC(F)(F)F`, for which the IC50 against Cruzipain was 0.13 µM; at Procathepsin L it was 2.63 µM.

In the case of `CC(C)C[C@H](N[C@@H](c1ccc(-c2ccc(N3CCNCC3)cc2)cc1)C(F)(F)F)C(=O)NCC#N`, the result in the data set on Trypanosoma cruzi was Active. The Activity entry in the data set listed under Mus musculus is recorded as “Non-toxic”. The molecule further yielded an IC50 against Cruzipain of 0.0018 µM.
